Data: patent publication US20170314056A1, “METHOD OF USING NEAR INFRARED FLUORESCENT DYES FOR IMAGING AND TARGETING CANCERS” (priority 2010, published 2017)
“Also recorded” adds a separate entry of the source.

What was measured:
[1] = Dye distribution and clearance in normal mouse tissues; format: in vivo
Source text: One mouse was sacrificed at 96 hrs after IR-780 injection through tail vein, and isolated tissues and organs excised from mice were cut into frozen slides and were imaged under confocal microscope.
To assess tissue distribution of these dyes, athymic mice without tumor implantation were sacrificed at 0, 6 and 80 hrs (N=3 each) after i.v. injection of IR-783 dye at a dose of 10 nmol/20 g. Dissected organs were subjected to NIR imaging by a Kodak Imaging Station 4000 MM. In another study the mice bearing orthotopic ARCaPM tumors were subjected to NIR imaging at 0.5, 24, 48, 72 and 96 hrs after IR-783 i.v. administration at a dose of 10 nmol/20 g. In some cases, we also assessed the biodistribution of NIR dye by a spectral method in tissues harvested from athymic mice bearing subcutaneous ARCaPM tumors (N=6). Tumors and normal host organs were homogenized in PBS, centrifuged at 15,000×g for 15 minutes to recover the supernatant fraction after the mice were injected i.p. with IR-783 at a dose of 10 nmol/20 g. The presence of the organic dyes (parental IR-783 and its metabolites) in tissues was estimated spectrophotometrically at an emission wavelength of 820 nm by a PTI Near Infrared Fluorometer QuantaMaster™ 50 (PTI, Birmingham, N.J.) equipped with a 75-watt xenon arc lamp under 500 to 1700 nm InGaAs detector using known concentrations of IR-783 as the standard (28). In other cases, tumor tissues harvested from mice were stored in formalin from 1 week to 3 months, and fluorescence images were obtained and compared.

[2] = Systemic toxicity of IR-783 in C57BL/6 mice; format: in vivo, mouse; settings: normal C57BL/6 mice
Description: The systemic toxicity of IR-783 was investigated in C57BL/6 mice (National Cancer Institute, Frederick, Md.) by injecting the dye by an i.p. route. The mice (N=8 per group) were subdivided into 4 groups and received PBS as control and IR-783 i.p. injection daily at the following doses: 0.375 mg/kg (imaging dose), 3.75 mg/kg and 37.5 mg/kg. […] The histomorphologic appearance of their vital organs was assessed at the time of sacrifice.

[3] = tested on: human renal tumor tissues; test: In vitro fluorescence imaging of freshly harvested human renal tumor tissues; format: cell-based; settings: fresh nephrectomy specimens; 20 µM dye, 37° C., 30 minutes
Description: Kidney tumor tissue samples were collected from 5 patients immediately after tumor nephrectomy according to an Emory approved IRB protocol. All 5 patients had histologically confirmed renal cell carcinoma of the clear cell type. The tissues were excised from tumor area, normal area and the area of tumor and normal adjacent on the kidney removed. All above procedures were conducted on ice and the excised tissues were stored at 4° C. Each incised tissue was cut into three pieces and were incubated with 20 µM IR-783 dye, 20 µM IR-780 and PBS, respectively, at 37° C. for 30 minutes. The dye solutions were removed and the tissues were washed five times by PBS. Optical imaging was done using Kodak Imaging Station Imaging System (see above).
To determine dye uptake in tissues, tissues cut from incised kidney samples (described above) tumor were placed in OTC medium and frozen at −80° C. These frozen tissues were retrieved for histopathologic sections cut to 5 Lm thickness for pathologic observation under a confocal microscope as described above.

[4] = tested on: ARCaPM orthotopic tumor metastases; test: Detection of metastases of orthotopic ARCaPM tumors in mice; format: in vivo, mouse; settings: orthotopic ARCaPM (ARCaP) model; bone and soft tissue metastases
Description: The spontaneous metastasis of ARCaPM tumor cells stably transduced with an AsRed2 red fluorescence protein (RFP) (Clontech, Mountain View, Calif.) by injecting these cells orthotopically in mice was studied. ARCaPM-RFP metastasis was determined by the same procedures described above for capturing cyanine dye tumor imaging after IR-783 i.p. injection at a dose of 10 nmol/20 g. In addition, at the time of sacrifice both frozen and paraffin embedded tissue sections were obtained for RFP and confocal fluorescence imaging. Positive identification of ARCaPM-RFP cells was accomplished by fluorescence microscopy and validated by subculturing ARCaPM-RFP cells directly from bone metastasis tissue specimens.

[5] = tested on: Apc^Min/+ mouse adenoma; test: Detection of intestinal neoplasia in Apc^Min/+ mice; format: in vivo; settings: IR-783 i.p. 10 nmol/20 g
Description: The uptake of cyanine dyes by the TRAMP mouse prostate model and the Apc^Min/+ mouse-adenoma model (obtained from The Jackson Laboratory, Bar Harbor, Me.) was assessed by a similar protocol as described above. We also utilized the Olympus OV100 imaging system to detect adenoma in the Apc^Min/+ mouse model. In brief, mice were injected intraperitoneally with IR-783 dye at a dose of 10 nmol/20 g body weight and animals were subjected to total body cyanine dye imaging as described above. Animals were sacrificed at 48 hrs after dye administration and tumors were dissected and subjected to NIR imaging. The presence of tumor cells in tissue specimens was confirmed by histopathologic analysis.

[6] = tested on: human bladder tumors; test: Uptake in freshly harvested human bladder tumor specimens; format: cell-based
Source text: The inventors determined the ability of IR-783 as an imaging agent for freshly harvested human renal and bladder cancer specimens. […] Fresh tumor xenografts grown in mice (FIG. 35) are able to uptake the dye. […] The nature of this uptake at this time is not clear.

[7] = tested on: human cancer cells; test: Uptake of NIR dyes by cultured human cancer cell lines (confocal NIR imaging); format: cell-based; settings: for uptake of dye by human cancer cell lines in culture: panel of prostate, breast, cervical, lung, liver, pancreatic, renal, bladder and leukemia lines, confocal microscope
Description: Cells (1×10^4/well) were seeded on vitronectin-coated four-well chamber slides (Nalgen Nunc, Naperville, Ill.) and incubated with T-medium containing 5% FBS for 24 h. After the cells had attached to the chamber slides, the cells were washed with PBS (Phosphate Buffered Saline) and exposed to the cyanine dye at a concentration of 20 μM in T-medium. The slides were incubated at 37° C. for 30 min, washed twice with PBS to remove excess dyes, and cells were fixed with 10% formaldehyde at 4° C. The slides were then washed twice with PBS and covered with glass coverslips with an aqueous mounting medium (Sigma-Aldrich, St. Louis, Mo.). Images were recorded by confocal laser microscopy (Zeiss LSM 510 META, Germany) using a 633 nm excitation laser and 670-810 nm long pass filter, or a fluorescence microscope (Olympus 1×71; Olympus, Melville, N.Y.) equipped with a 75 W Xenon lamp and an Indo-Cyanine Green filter cube (excitation 750-800 nm; emission 820-860 nm) (Chroma, Rockingham, Vt.).
Cells (1×10^4/well) were seeded on vitronectin-coated four-well chamber slides (Nalgen Nunc, Naperville, Ill.) and incubated with T-medium containing 5% FBS for 24 h. After the cells had attached to the chamber slides, the cells were washed with PBS (Phosphate Buffered Saline) and exposed to the cyanine dye at a concentration of 20 μM in medium. The slides were incubated at 37° C. for 30 min, washed twice with PBS to remove excess dyes, and fixed with 10% formaldehyde at 4° C. The slides were then washed twice with PBS and covered with glass coverslips with aqueous mounting medium (Sigma-Aldrich, St. Louis, Mo.). Images were recorded by confocal laser microscopy (Zeiss LSM 510 META, Germany) equipped with 633 nm excitation laser and 670-810 nm long pass filter.

[8] = tested on: ARCaPM cells; test: Subcellular co-localization with mitochondria and lysosome tracking dyes; format: cell-based, human; settings: Mito Tracker and Lyso Tracker co-staining
Description: Cells were plated on live-cell imaging chambers (World Precision Instrument, Sarasota, Fla.) overnight. Cells were exposed to cyanine dyes at different concentrations and dye uptake was evaluated by a Perkin-Elmer Ultraview ERS spinning disc confocal microscope. This system was mounted on a Zeiss Axiovert 200m inverted microscope equipped with a 37° C. stage warmer, incubator, and constant CO2 perfusion. A 63× or 100× Zeiss oil objective (numerical aperture, 1.4) was used for live cell images and a Z-stack was created using the attached piezoelectric z-stepper motor. The 633 nm laser line of an argon ion laser (set at 60% power) was used to excite the cyanine dyes. […] For comparative studies, the exposure time and laser intensity were kept identical for accurate intensity measurements. Pixel intensity was quantified using Metamorph 6.1 (Universal Imaging, Downingtown, Pa.) and the mean pixel intensity was generated as grey level using the Region Statistics feature on the software (23). To determine the dye uptake by the mitochondria, the mitochondrial tracking dye Mito Tracker Orange CMTMROS (Molecular Probes, Carlsbad, Calif.) was used. To determine the dye localization in lysosomes, a lysosome tracking dye, Lyso Tracker Green DND-26 (Molecular Probes, Carlsbad, Calif.), was selected. […]

## 2-[2-[2-Chloro-3-[2-[1,3-dihydro-3,3-dimethyl-1-(4-sulfobutyl)-2H-indol-2-ylidene]-ethylidene]-1-cyclohexen-1-yl]-ethenyl]-3,3-dimethyl-1-(4-sulfobutyl)-3H-indolium [IR-783]
[1]; 6 hrs after i.v. 10 nmol/20 g, normal mice
  organs accumulating dye: accumulate in mouse liver, kidney, lung and heart
[1]; 80 hrs after i.v. 10 nmol/20 g, normal mice
  dye in vital organs at 80 hrs: completely cleared
[1]; i.v. 10 nmol/20 g, normal mice
  time by which dye was cleared from all mouse vital organs: ≤ 80 h
[1]; liver, kidney, testis and seminal vesicles, live animals
  time period within which dye was cleared from normal organs: ≤ 96 h
[2]
  effect on body weights: did not affect body weights
  histopathology of vital organs at the time of sacrifice: No abnormal histopathology
[2]; i.p. daily 0.375, 3.75 and 37.5 mg/kg, one month
  systemic toxicity: no systemic toxicity
[3]
  dye uptake in human renal tumor tissue: can be taken up; also recorded: significant uptake; also recorded: strong IR-783 uptake
  dye uptake in normal kidney tissue: substantial low uptake; also recorded: undetectable; also recorded: not in normal kidney tissues
  signal in tumor tissues compared with IR-780 and PBS: stronger signals in tumor tissues than the IR-780 and PBS group
[4]
  detection of metastases by NIR imaging: highly effective in localizing tumors cells in soft tissues and in bone; also recorded: both the primary tumor and the metastases in mouse tibia/femur were detected; also recorded: signals attained in IR-783 imaging reflect metastases of the orthotopic ARCaPM tumor
[5]
  detection of tumor (adenoma): could detect tumor
[6]; freshly harvested bladder specimens
  dye uptake in normal tissue: to a much lesser extent by normal tissue
[6]; freshly harvested specimens
  dye uptake by fat cells and tissues: can also be taken up by fatty tissues; also recorded: also taken up by fat cells and tissues
  dye uptake in human bladder tumor tissue: can be taken up; also recorded: taken up by tumor tissues
[7]
  uptake of dye by human bladder cancer cell lines: strong uptake
  uptake of dye by human pancreatic cancer cell lines: strong uptake
[7]; data not shown
  dye uptake into cancer cells at 0° C.: no dye uptake and none
[7]; 37° C., data not shown
  dye uptake into cancer cells at 37° C.: high
[7]; SN12C, ACHN, Caki-1, 20 μM dye, 30 min
  uptake of dye by human renal cancer cells: significant uptake; also recorded: actively taking up
[7]; 20 μM dye, 30 min
  uptake of dye by human cancer cell lines in culture: preferentially taken up and retained by cancer but not normal cells; also recorded: a wide range of cancer cells but not normal cells were taking up these dyes; also recorded: retained in cancerous cells of human origin; also recorded: significant uptake
[8]
  subcellular localization of the dye: condense on mitochondrial and lysosomal organelles; also recorded: a large portion of the IR-783 was co-localized with these subcellular organelles

## CCCN1C(=CC=C2CCCC(C=CC3=[N+](CCC)c4ccccc4C3(C)C)=C2Cl)C(C)(C)c2ccccc21.[I-] [IR-780, 2-[2-[2-Chloro-3-[(1,3-dihydro-3,3-dimethyl-1-propyl-2H-indol-2-ylidene)ethylidene]-1-cyclohexen-1-yl]ethenyl]-3,3-dimethyl-1-propylindolium iodide]
[1]; 96 hrs after injection through tail vein, frozen slides, confocal
  dye uptake in normal mouse tissues: all mouse tissues failed to uptake this organic dye
[7]; data not shown
  dye uptake into cancer cells at 0° C.: no dye uptake
[7]; 20 μM dye, 30 min
  uptake of dye by human cancer cell lines in culture: preferentially taken up and retained by cancer but not normal cells; also recorded: a wide range of cancer cells but not normal cells were taking up these dyes; also recorded: significant uptake
[8]
  subcellular localization of the dye: co-localized with both mitochondria and lysosomes; also recorded: Co-localization of IR-780 and mitochondrial and lysosome were shown
